Results from patent US20220259593A1, “CONTROL OF MAMMALIAN GENE DOSAGE USING CRISPR” (The Regents of the University of California, priority 2019, published 2022).

Test system: K562 CRISPRi cells
Experiment: Perturb-seq pooled growth measurement (sgRNA counts, growth phenotype γ, relative activity)
Format: cell-based, human
Settings: sequencing read counts; for Perturb-seq pooled growth sgRNA counts, d5: 5 days of growth (day seven after transduction); for Perturb-seq pooled growth sgRNA counts, d10: 10 days of growth (day twelve after transduction); for Perturb-seq pooled growth sgRNA counts, T0: T0 = day two after transduction
How it was run: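 sgRNA abundance was sequenced from genomic DNA of the same transduced population sampled on days two, seven and twelve. Phenotype γ compares normalized day seven and twelve counts with day two. Day-seven values (five days of growth) define relative sgRNA activity.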

MTOR_+_11322547.23-P1P2_10: sgRNA targeting MTOR, GGGCAGGGGGCCTGAAGCAG, SEQ ID NO: 150 (listed as DNA, chemistry not fully specified)
Perturb-seq pooled growth sgRNA counts, d5: 7332 | Perturb-seq pooled growth sgRNA counts, d10: 7827 | Perturb-seq pooled growth sgRNA counts, T0: 7076

POLR1D_+_28196016.23-P1_00: sgRNA targeting POLR1D, GGGAAGCAAGGACCGACCGA, SEQ ID NO: 11 (listed as DNA, chemistry not fully specified)
Perturb-seq pooled growth sgRNA counts, d5: 3429 | Perturb-seq pooled growth sgRNA counts, d10: 1496 | Perturb-seq pooled growth sgRNA counts, T0: 11671

POLR1D_+_28196016.23-P1_01: sgRNA targeting POLR1D, GGGAAGCCAGGACCGACCGA, SEQ ID NO: 76 (listed as DNA, chemistry not fully specified)
Perturb-seq pooled growth sgRNA counts, d5: 4460 | Perturb-seq pooled growth sgRNA counts, d10: 2528 | Perturb-seq pooled growth sgRNA counts, T0: 12679

POLR1D_+_28196016.23-P1_03: sgRNA targeting POLR1D, GGTAAGCAAGGACCGACCGA, SEQ ID NO: 75 (listed as DNA, chemistry not fully specified)
Perturb-seq pooled growth sgRNA counts, d5: 2365 | Perturb-seq pooled growth sgRNA counts, d10: 933 | Perturb-seq pooled growth sgRNA counts, T0: 10266

POLR1D_+_28196016.23-P1_07: sgRNA targeting POLR1D, GGGAAGCAAGGAGCGACCGA, SEQ ID NO: 77 (listed as DNA, chemistry not fully specified)
Perturb-seq pooled growth sgRNA counts, d5: 16283 | Perturb-seq pooled growth sgRNA counts, d10: 16285 | Perturb-seq pooled growth sgRNA counts, T0: 15589

POLR1D_+_28196016.23-P1_08: sgRNA targeting POLR1D, GGGAAGCAGGGACCGACCGA, SEQ ID NO: 74 (listed as DNA, chemistry not fully specified)
Perturb-seq pooled growth sgRNA counts, d5: 4205 | Perturb-seq pooled growth sgRNA counts, d10: 1986 | Perturb-seq pooled growth sgRNA counts, T0: 16414

POLR2H_+_184081251.23-P1P2_00: sgRNA targeting POLR2H, GGGGCCACGAGAGCAGCAGA, SEQ ID NO: 28 (listed as DNA, chemistry not fully specified)
Perturb-seq pooled growth sgRNA counts, d5: 947 | Perturb-seq pooled growth sgRNA counts, d10: 1103 | Perturb-seq pooled growth sgRNA counts, T0: 9498

POLR2H_+_184081251.23-P1P2_07: sgRNA targeting POLR2H, GGGGCCACGAGTGCAGCAGA, SEQ ID NO: 118 (listed as DNA, chemistry not fully specified)
Perturb-seq pooled growth sgRNA counts, d5: 6381 | Perturb-seq pooled growth sgRNA counts, d10: 8153 | Perturb-seq pooled growth sgRNA counts, T0: 4472

POLR2H_+_184081251.23-P1P2_08: sgRNA targeting POLR2H, GGGGCCACGCGAGCAGCAGA, SEQ ID NO: 116 (listed as DNA, chemistry not fully specified)
Perturb-seq pooled growth sgRNA counts, d5: 3492 | Perturb-seq pooled growth sgRNA counts, d10: 3869 | Perturb-seq pooled growth sgRNA counts, T0: 6134

POLR2H_+_184081251.23-P1P2_11: sgRNA targeting POLR2H, GGGGCCACGAGAGCAGCGGA, SEQ ID NO: 115 (listed as DNA, chemistry not fully specified)
Perturb-seq pooled growth sgRNA counts, d5: 898 | Perturb-seq pooled growth sgRNA counts, d10: 1144 | Perturb-seq pooled growth sgRNA counts, T0: 5900

POLR2H_+_184081251.23-P1P2_12: sgRNA targeting POLR2H, GGGGCCACGAGAGCAGGAGA, SEQ ID NO: 117 (listed as DNA, chemistry not fully specified)
Perturb-seq pooled growth sgRNA counts, d5: 4854 | Perturb-seq pooled growth sgRNA counts, d10: 5996 | Perturb-seq pooled growth sgRNA counts, T0: 5334

RAN_+_131356438.23-P1P2_00: sgRNA targeting RAN, GGCGGTCGCTGCGCTTAGGG, SEQ ID NO: 69 (listed as DNA, chemistry not fully specified)
Perturb-seq pooled growth sgRNA counts, d5: 7598 | Perturb-seq pooled growth sgRNA counts, d10: 8936 | Perturb-seq pooled growth sgRNA counts, T0: 5444

RAN_+_131356438.23-P1P2_02: sgRNA targeting RAN, GGCGGCCGCTGCGCTTAGGG, SEQ ID NO: 70 (listed as DNA, chemistry not fully specified)
Perturb-seq pooled growth sgRNA counts, d5: 15046 | Perturb-seq pooled growth sgRNA counts, d10: 15358 | Perturb-seq pooled growth sgRNA counts, T0: 11853

RAN_+_131356438.23-P1P2_03: sgRNA targeting RAN, GGGGGTCGCTGCGCTTAGGG, SEQ ID NO: 71 (listed as DNA, chemistry not fully specified)
Perturb-seq pooled growth sgRNA counts, d5: 6698 | Perturb-seq pooled growth sgRNA counts, d10: 6816 | Perturb-seq pooled growth sgRNA counts, T0: 5056

RAN_+_131356438.23-P1P2_04: sgRNA targeting RAN, GGCGGTCGCGGCGCTTAGGG, SEQ ID NO: 72 (listed as DNA, chemistry not fully specified)
Perturb-seq pooled growth sgRNA counts, d5: 11409 | Perturb-seq pooled growth sgRNA counts, d10: 14870 | Perturb-seq pooled growth sgRNA counts, T0: 6001

RAN_+_131356438.23-P1P2_12: sgRNA targeting RAN, GGCGGTCGCTGCGCTTAGGT, SEQ ID NO: 73 (listed as DNA, chemistry not fully specified)
Perturb-seq pooled growth sgRNA counts, d5: 16172 | Perturb-seq pooled growth sgRNA counts, d10: 25349 | Perturb-seq pooled growth sgRNA counts, T0: 7627

RPL9_+_39460483.23-P1P2_00: sgRNA targeting RPL9, GGATGTTTCTGTGCTCGTGG, SEQ ID NO: 5 (listed as DNA, chemistry not fully specified)
Perturb-seq pooled growth sgRNA counts, d5: 1141 | Perturb-seq pooled growth sgRNA counts, d10: 1014 | Perturb-seq pooled growth sgRNA counts, T0: 10355

RPL9_+_39460483.23-P1P2_01: sgRNA targeting RPL9, GGATGATTCTGTGCTCGTGG, SEQ ID NO: 51 (listed as DNA, chemistry not fully specified)
Perturb-seq pooled growth sgRNA counts, d5: 1108 | Perturb-seq pooled growth sgRNA counts, d10: 1238 | Perturb-seq pooled growth sgRNA counts, T0: 4886

RPL9_+_39460483.23-P1P2_04: sgRNA targeting RPL9, GGATGTTTCAGTGCTCGTGG, SEQ ID NO: 53 (listed as DNA, chemistry not fully specified)
Perturb-seq pooled growth sgRNA counts, d5: 3975 | Perturb-seq pooled growth sgRNA counts, d10: 4118 | Perturb-seq pooled growth sgRNA counts, T0: 5237
